From patent US8536164B2, “Fused pyridine compounds as casein kinase inhibitors” (Pfizer Inc., priority 2010, dated 2013)

Assays:
[1] = molecular target: CKIδ wild type (Homo sapiens, UniProt P48730); assay: CK1δ kinase assay (Kinase-Glo); type: biochemical; conditions: 10 μM ATP, 2 nM CKIδ, 85 min at 25° C.; read-out: CK1 δ IC50
Experimental: (§1) The CK1δ kinase assay was performed in a 40 μl final volume in buffer containing 50 mM Tris, pH 7.5, 10 mM MgCl2, 1 mM dithiothreitol, 100 μg/mL BSA with 10 μM ATP, 2 nM CKIδ wild type, and 42 μM peptide substrate PLSRTLp[…] (Flotow et al., 1990) in the presence of 1 μl of CKIδ inhibitor or 4% DMSO. The reaction was incubated for 85 min at 25° C.; detection was carried out as described for the Kinase-Glo Assay (Promega). Luminescent output was measured on the Perkin Elmer Envision plate reader (PerkinElmer, Waltham, Mass.).

[2] = molecular target: T1, human CK1δ (Cos 7 cells cotransfected with mouse Per3-GFP) (Homo sapiens, UniProt P48730); assay: CK1 WCA HCS nuclear translocation assay (CK1δ); type: cell-based; conditions: inhibition of mPer3-GFP translocation to the nucleus, overnight exposure, read-out: CK1 δ WCA EC50
T1 construct: His tag of the vector pcDNA4/hisA (only the vector name is printed); expressed in transfected cells; host or cells: Cos 7 cells
T1 sequence (P48730 whole entry): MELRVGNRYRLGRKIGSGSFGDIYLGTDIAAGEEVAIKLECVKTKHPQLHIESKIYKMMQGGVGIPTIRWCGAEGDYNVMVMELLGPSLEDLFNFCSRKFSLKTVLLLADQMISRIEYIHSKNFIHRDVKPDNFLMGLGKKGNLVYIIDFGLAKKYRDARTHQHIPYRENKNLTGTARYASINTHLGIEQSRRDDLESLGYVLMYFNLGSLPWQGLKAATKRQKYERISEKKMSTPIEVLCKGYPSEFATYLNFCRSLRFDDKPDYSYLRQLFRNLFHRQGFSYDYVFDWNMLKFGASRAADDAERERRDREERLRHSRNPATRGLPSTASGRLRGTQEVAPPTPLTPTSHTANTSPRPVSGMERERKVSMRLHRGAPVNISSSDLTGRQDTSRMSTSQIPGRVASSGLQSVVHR
Experimental: CK1 WCA HCS Nuclear Translocation Assay.
Cos 7 cells were maintained at 37° C. in 5% CO2 in Dulbecco's Modified Eagle Medium (Gibco 11995) supplemented with 10% fetal bovine serum. Log-phase cells were dislodged with 5 min treatment of TrypLE Express (Gibco 12605) and viable cell count was determined with Cedex cell counter. Cells were diluted in DMEM medium to a density of 1.5e5 viable cells/mL in ⅔ of the final volume of final transfected cell mix. Cells were cotransfected with two plasmid DNAs, mouse Per3-GFP (green fluorescent protein) in pd2EGFP-N1 vector and human CKI in pcDNA4/hisA vector (for CK1Epsilon at a ratio of 1:5 respectively; for CK1δ at a ratio of 1:11 respectively), using Lipofectamine 2000 reagent (Invitrogen) according to the manufacturer's recommendations. The transfection mix contained approximately 0.83 μg/mL of DNA and 6 μL/mL of Lipofectamine 2000, in a total of ⅓ of the final transfection volume in Opti-MEM I medium (Invitrogen). After 20 min at rt, the cell mix was combined with the DNA transfection mix, per manufacturer instructions. 50 μL of the transfected cell suspension was dispensed per well by multidrop dispenser into Greiner 384-well Cellcoat (PDL) plates (Greiner #781946).
Compounds were solubilized in 100% DMSO, diluted with Opti-MEM I to a 4× concentration before addition to plated cells. After overnight exposure at 37° C. in a CO2 incubator, cells were fixed by the addition of 12% paraformaldehyde (Electron Microscopy Sciences, Hatfield, Pa.) in phosphate-buffered saline (PBS) with 20% sucrose to a final concentration of 4%, and then the cells were incubated for 30 min at rt. Fixative was removed, and cells were washed with PBS and then stained with 0.4 μg/ml Hoechst dye (Invitrogen) in blocking buffer containing 4% goat serum (Vector Labs s-1000) and 0.1% TritonX (Sigma T8787) for 1 h. Cells were washed again with PBS and stored at 4° C. in PBS or scanned immediately with the Cellomics ArrayScan VTI. CKIδ dependent nuclear localization of the GFP-tagged mPer3 protein was quantitated using the Cellomics ArrayScan VTI system utilizing the Cytoplasm to Nucleus translocation bioapplication to calculate the Nuclear-Cytoplasmic Intensity difference. Inhibitors of CK1 δ/ε were tested across a dose response curve to evaluate their ability to inhibit mPer3-GFP translocation to the nucleus. Cells with a total intensity of mPER3:GFP expression equal to or greater than 20,000 are included in analysis.

[3] = molecular target: CKI ε wild type (Homo sapiens, UniProt P49674); assay: CK1ε kinase assay (Kinase-Glo); type: biochemical; conditions: 10 μM ATP, 2.5 nM CKI ε, 70 min at 25° C.; read-out: CK1 ε:IC50
CKI ε wild type, sequence (P49674 whole entry): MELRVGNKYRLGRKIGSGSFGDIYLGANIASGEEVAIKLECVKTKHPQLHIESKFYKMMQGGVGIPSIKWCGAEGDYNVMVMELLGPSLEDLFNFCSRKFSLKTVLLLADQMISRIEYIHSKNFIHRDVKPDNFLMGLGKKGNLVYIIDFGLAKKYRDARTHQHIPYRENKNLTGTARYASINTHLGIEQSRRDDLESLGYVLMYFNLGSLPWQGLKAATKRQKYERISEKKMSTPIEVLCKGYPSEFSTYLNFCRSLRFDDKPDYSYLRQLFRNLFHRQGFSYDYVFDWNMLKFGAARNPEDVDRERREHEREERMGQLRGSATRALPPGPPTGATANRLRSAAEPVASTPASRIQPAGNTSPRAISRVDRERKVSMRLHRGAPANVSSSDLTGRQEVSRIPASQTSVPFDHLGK
Experimental: as §1, with “The CK1ε” for “The CK1δ”, “a 40-μl” for “a 40 μl”, “ATP, 2.5” for “ATP, 2”, “nM CKI ε” for “nM CKIδ”, “of CKI ε” for “of CKIδ”, “for 70” for “for 85”

CKIδ wild type, sequence (P48730 whole entry): as the sequence (P48730 whole entry) above

Row | IC50 [1] [nM] | EC50 [2] [nM] | IC50 [3] [nM] | Compound
1 | 21.3 | 83.6 | 145 | Cn1cc(-c2ccnc3c2C(=O)N(Cc2cccnc2)C3)c(-c2ccc(F)cc2)n1 [Example 50, 4-[3-(4-fluorophenyl)-1-methyl-1H-pyrazol-4-yl]-6-(pyridin-3-ylmethyl)-6,7-dihydro-5H-pyrrolo[3,4-b]pyridin-5-one]
2 | > 75.5 | 232 | > 230 | Cn1cc(CCN2Cc3nccc(-c4cn(C)nc4-c4ccc(F)cc4)c3C2=O)cn1 [Example 33, 4-[3-(4-fluorophenyl)-1-methyl-1H-pyrazol-4-yl]-6-[2-(1-methyl-1H-pyrazol-4-yl)ethyl]-6,7-dihydro-5H-pyrrolo[3,4-b]pyridin-5-one]
3 | 11.1 | 53.7 | 47.1 | Cn1cc(-c2ccnc3c2C(=O)N(CCC#N)C3)c(-c2ccc(F)cc2)n1 [Example 40, 3-{4-[3-(4-fluorophenyl)-1-methyl-1H-pyrazol-4-yl]-5-oxo-5,7-dihydro-6H-pyrrolo[3,4-b]pyridin-6-yl}propanenitrile]
4 | 67.3 | 623 | 386 | COCCN1Cc2nccc(-c3cn(C)nc3-c3ccc(F)cc3)c2C1=O [Example 42, 4-[3-(4-fluorophenyl)-1-methyl-1H-pyrazol-4-yl]-6-(2-methoxyethyl)-6,7-dihydro-5H-pyrrolo[3,4-b]pyridin-5-one]
5 | 23.3 | 104 | 130 | Cc1c(CN2Cc3nccc(-c4cn(C)nc4-c4ccc(F)cc4)c3C2=O)cnn1C [Example 35, 6-[(1,5-dimethyl-1H-pyrazol-4-yl)methyl]-4-[3-(4-fluorophenyl)-1-methyl-1H-pyrazol-4-yl]-6,7-dihydro-5H-pyrrolo[3,4-b]pyridin-5-one]
6 | 19 | 60.7 | 127 | Cc1ccc(CN2Cc3nccc(-c4cn(C)nc4-c4ccc(F)cc4)c3C2=O)cn1 [Example 52, 4-[3-(4-fluorophenyl)-1-methyl-1H-pyrazol-4-yl]-6-[(6-methylpyridin-3-yl)methyl]-6,7-dihydro-5H-pyrrolo[3,4-b]pyridin-5-one]
7 | 22.6 | 125 | 123 | Cn1cc(CN2Cc3nccc(-c4cn(C)nc4-c4ccc(F)cc4)c3C2=O)cn1 [Example 26, 4-[3-(4-fluorophenyl)-1-methyl-1H-pyrazol-4-yl]-6-[(1-methyl-1H-pyrazol-4-yl)methyl]-6,7-dihydro-5H-pyrrolo[3,4-b]pyridin-5-one]
8 | 93.2 | 564 | 512 | CN(C)C(=O)CN1Cc2nccc(-c3cn(C)nc3-c3ccc(F)cc3)c2C1=O [Example 43, 2-{4-[3-(4-fluorophenyl)-1-methyl-1H-pyrazol-4-yl]-5-oxo-5,7-dihydro-6H-pyrrolo[3,4-b]pyridin-6-yl}-N,N-dimethylacetamide]
9 | 20.5 | 65.5 | 108 | Cn1cc(-c2ccnc3c2C(=O)N(Cc2cccc(C#N)c2)C3)c(-c2ccc(F)cc2)n1 [Example 41, 3-({4-[3-(4-fluorophenyl)-1-methyl-1H-pyrazol-4-yl]-5-oxo-5,7-dihydro-6H-pyrrolo[3,4-b]pyridin-6-yl}methyl)benzonitrile]

The remaining lines, values behind:

Row | Compound | IC50 [1] [nM] | EC50 [2] [nM] | IC50 [3] [nM]
10 | Cc1cc(CN2Cc3nccc(-c4cn(C)nc4-c4ccc(F)cc4)c3C2=O)nn1C [Example 28, 6-[(1,5-dimethyl-1H-pyrazol-3-yl)methyl]-4-[3-(4-fluorophenyl)-1-methyl-1H-pyrazol-4-yl]-6,7-dihydro-5H-pyrrolo[3,4-b]pyridin-5-one] | 15.7 | 66.4 | 86.4
11 | Cn1cc(-c2ccnc3c2C(=O)N(CCOC(C)(C)C)C3)c(-c2ccc(F)cc2)n1 [Example 30, 6-(2-tert-butoxyethyl)-4-[3-(4-fluorophenyl)-1-methyl-1H-pyrazol-4-yl]-6,7-dihydro-5H-pyrrolo[3,4-b]pyridin-5-one] | 27.7 | 159 | 149
12 | Cn1cc(-c2ccnc3c2C(=O)N(Cc2ccccc2)C3)c(-c2ccc(F)cc2)n1 [Example 5, 6-benzyl-4-[3-(4-fluorophenyl)-1-methyl-1H-pyrazol-4-yl]-6,7-dihydro-5H-pyrrolo[3,4-b]pyridin-5-one] | 6.05 | 16.4 | 39
13 | COC[C@H]1CCC[C@H]1N1Cc2nccc(-c3cn(C)nc3-c3ccc(F)cc3)c2C1=O [Example 44, 4-[3-(4-fluorophenyl)-1-methyl-1H-pyrazol-4-yl]-6-[(1R,2S)-2-(methoxymethyl)cyclopentyl]-6,7-dihydro-5H-pyrrolo[3,4-b]pyridin-5-one] | 70.8 | 437 | 342
14 | Cn1cc(-c2ccnc3c2C(=O)N(C24CC(C2)C4)C3)c(-c2ccc(F)cc2)n1 [Example 48, 6-bicyclo[1.1.1]pent-1-yl-4-[3-(4-fluorophenyl)-1-methyl-1H-pyrazol-4-yl]-6,7-dihydro-5H-pyrrolo[3,4-b]pyridin-5-one] | 18.4 | 130 | 80.7
15 | COCCCN1Cc2nccc(-c3cn(C)nc3-c3ccc(F)cc3)c2C1=O [Example 29, 4-[3-(4-fluorophenyl)-1-methyl-1H-pyrazol-4-yl]-6-(3-methoxypropyl)-6,7-dihydro-5H-pyrrolo[3,4-b]pyridin-5-one] | 26.2 | 217 | 131
16 | Cn1cc(-c2ccnc3c2CN(Cc2ccccc2)C3)c(-c2ccc(F)cc2)n1 [Example 6, 6-benzyl-4-[3-(4-fluorophenyl)-1-methyl-1H-pyrazol-4-yl]-6,7-dihydro-5H-pyrrolo[3,4-b]pyridine] | 61 | 204 | 292
17 | Cn1cc(-c2ccnc3c2C(=O)N(CC2CC2)C3)c(-c2ccc(F)cc2)n1 [Example 37, 6-(cyclopropylmethyl)-4-[3-(4-fluorophenyl)-1-methyl-1H-pyrazol-4-yl]-6,7-dihydro-5H-pyrrolo[3,4-b]pyridin-5-one] | 12.9 | 74.1 | 82.5
18 | Cn1cc(-c2ccnc3c2C(=O)N(CC2CCOC2)C3)c(-c2ccc(F)cc2)n1 (stereo not drawn) [Example 27, 4-[3-(4-fluorophenyl)-1-methyl-1H-pyrazol-4-yl]-6-(tetrahydrofuran-3-ylmethyl)-6,7-dihydro-5H-pyrrolo[3,4-b]pyridin-5-one] | 35.3 | 369 | 210
19 | Cn1cc(-c2ccnc3c2C(=O)N(C2CCCC2)C3)c(-c2ccc(F)cc2)n1 [Example 32, 6-cyclopentyl-4-[3-(4-fluorophenyl)-1-methyl-1H-pyrazol-4-yl]-6,7-dihydro-5H-pyrrolo[3,4-b]pyridin-5-one] | 8.93 | 84.9 | 40.8
20 | Cn1cc(-c2ccnc3c2CCC3O)c(-c2ccc(F)cc2)n1 (stereo not drawn) [Example 24, 4-[3-(4-fluorophenyl)-1-methyl-1H-pyrazol-4-yl]-6,7-dihydro-5H-cyclopenta[b]pyridin-7-ol] | 28.5 | 266 | 149
21 | Cn1cc(-c2ccnc3c2CCC3)c(-c2ccc(F)cc2)n1 [Example 23, 4-[3-(4-fluorophenyl)-1-methyl-1H-pyrazol-4-yl]-6,7-dihydro-5H-cyclopenta[b]pyridine] | 25.4 | 214 | 157
